This test concerns T1, XyrB.
T1 construct: full-length intron-free codon-optimized gene in pET-28a(+), E. coli BL21(DE3)pLysS, HisTrap purified; AKR motif 22-277
Briefly: NADPH consumption at […] nm, Michaelis-Menten fit. Format: biochemical, Aspergillus niger. Particulars: 0.2 mM NADPH, PBS pH 7.0, 25 °C.

Structures are written as SMILES. Where two headings read alike, the source gives them in different places.

With `OC[C@H]1OC(O)[C@H](O)[C@@H](O)[C@H]1O` (stereo partly drawn) [D-galactose], where the note is “read-out: Km”, the Km worked out at 12.5 mM.
For the compound `OC1OC[C@H](O)[C@H](O)[C@H]1O` (stereo partly drawn) [L-arabinose], for the setting “read-out: Km”, the Km was 9.9 mM.
For the compound `OC1OC[C@@H](O)[C@H](O)[C@H]1O` (stereo partly drawn) [D-xylose], where the note is “read-out: D-xylose / Km”, the Km came out at 3.3 mM.

These data come from PMC8020424, “Characterization of D-xylose reductase, XyrB, from Aspergillus niger” (Biotechnology Reports, 2021).
